Laboratory results: ChEMBL document CHEMBL5696441 (Nat Chem Biol, 2011)

What was measured:
[1] = target: Ephrin type-A receptor 5 (Homo sapiens) (UniProt P54756); test: Inhibition of EPHA5 (unknown origin) assessed as remaining activity at 1 uM by Kinome scan method relative to control
[2] = target: Mitogen-activated protein kinase kinase kinase 13 (Homo sapiens) (UniProt O43283); test: Inhibition of LZK (unknown origin) assessed as remaining activity at 1 uM by Kinome scan method relative to control
[3] = target: Proto-oncogene tyrosine-protein kinase receptor Ret (Homo sapiens) (UniProt P07949); test: Inhibition of RET (unknown origin) assessed as remaining activity at 1 uM by Kinome scan method relative to control
[4] = target: SRSF protein kinase 1 (Homo sapiens) (UniProt Q96SB4); test: Inhibition of SRPK1 (unknown origin) assessed as remaining activity at 1 uM by Kinome scan method relative to control
[5] = target: CDK9/Cyclin K (Homo sapiens) (UniProt P50750+O75909); test: Inhibition of human CDK9/CycK assessed as residual activity at 1 uM using RBER-CHKtide as substrate in presence of 33P-ATP by ProQinase assay relative to control; assay type: protein-complex assay
[6] = target: T1, Ephrin type-B receptor 4 (Homo sapiens) (UniProt P54760); test: Inhibition of human EPHB4 assessed as residual activity at 1 uM using polyEY as substrate in presence of 33P-ATP by ProQinase assay relative to control
T1 sequence (whole entry): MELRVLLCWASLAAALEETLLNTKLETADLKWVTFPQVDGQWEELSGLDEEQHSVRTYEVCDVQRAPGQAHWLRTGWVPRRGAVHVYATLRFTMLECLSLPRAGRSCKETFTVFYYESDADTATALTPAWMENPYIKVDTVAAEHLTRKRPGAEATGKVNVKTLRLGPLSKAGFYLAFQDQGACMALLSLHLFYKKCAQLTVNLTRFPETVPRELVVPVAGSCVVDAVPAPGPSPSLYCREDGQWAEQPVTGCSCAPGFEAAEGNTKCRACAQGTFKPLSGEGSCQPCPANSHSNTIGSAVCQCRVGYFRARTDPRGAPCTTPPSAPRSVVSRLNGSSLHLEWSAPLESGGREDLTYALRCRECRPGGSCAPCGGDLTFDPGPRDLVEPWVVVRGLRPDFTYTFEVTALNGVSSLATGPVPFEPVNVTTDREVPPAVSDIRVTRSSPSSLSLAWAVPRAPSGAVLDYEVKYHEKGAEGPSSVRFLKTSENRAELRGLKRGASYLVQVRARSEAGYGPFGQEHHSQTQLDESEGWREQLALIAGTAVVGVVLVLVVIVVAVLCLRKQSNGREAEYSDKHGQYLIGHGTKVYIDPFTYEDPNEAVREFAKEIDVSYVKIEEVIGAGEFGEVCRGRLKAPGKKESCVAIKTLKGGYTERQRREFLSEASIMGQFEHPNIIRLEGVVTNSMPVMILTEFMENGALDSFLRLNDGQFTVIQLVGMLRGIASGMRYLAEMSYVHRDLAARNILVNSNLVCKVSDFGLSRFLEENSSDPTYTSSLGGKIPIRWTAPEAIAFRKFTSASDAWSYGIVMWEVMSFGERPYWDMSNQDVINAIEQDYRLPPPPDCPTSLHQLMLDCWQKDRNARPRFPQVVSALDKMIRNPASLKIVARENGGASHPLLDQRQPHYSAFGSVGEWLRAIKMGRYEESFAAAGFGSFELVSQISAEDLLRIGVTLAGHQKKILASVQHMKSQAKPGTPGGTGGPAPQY

[7] = target: Tyrosine-protein kinase HCK (Homo sapiens) (UniProt P08631); test: Inhibition of human HCK assessed as residual activity at 1 uM using polyEY as substrate in presence of 33P-ATP by ProQinase assay relative to control
[8] = target: T2, MAP/microtubule affinity-regulating kinase 4 (Homo sapiens) (UniProt Q96L34); test: Inhibition of human MARK4 assessed as residual activity at 1 uM using RBER-CHKtide as substrate in presence of 33P-ATP by ProQinase assay relative to control
T2 sequence (whole entry): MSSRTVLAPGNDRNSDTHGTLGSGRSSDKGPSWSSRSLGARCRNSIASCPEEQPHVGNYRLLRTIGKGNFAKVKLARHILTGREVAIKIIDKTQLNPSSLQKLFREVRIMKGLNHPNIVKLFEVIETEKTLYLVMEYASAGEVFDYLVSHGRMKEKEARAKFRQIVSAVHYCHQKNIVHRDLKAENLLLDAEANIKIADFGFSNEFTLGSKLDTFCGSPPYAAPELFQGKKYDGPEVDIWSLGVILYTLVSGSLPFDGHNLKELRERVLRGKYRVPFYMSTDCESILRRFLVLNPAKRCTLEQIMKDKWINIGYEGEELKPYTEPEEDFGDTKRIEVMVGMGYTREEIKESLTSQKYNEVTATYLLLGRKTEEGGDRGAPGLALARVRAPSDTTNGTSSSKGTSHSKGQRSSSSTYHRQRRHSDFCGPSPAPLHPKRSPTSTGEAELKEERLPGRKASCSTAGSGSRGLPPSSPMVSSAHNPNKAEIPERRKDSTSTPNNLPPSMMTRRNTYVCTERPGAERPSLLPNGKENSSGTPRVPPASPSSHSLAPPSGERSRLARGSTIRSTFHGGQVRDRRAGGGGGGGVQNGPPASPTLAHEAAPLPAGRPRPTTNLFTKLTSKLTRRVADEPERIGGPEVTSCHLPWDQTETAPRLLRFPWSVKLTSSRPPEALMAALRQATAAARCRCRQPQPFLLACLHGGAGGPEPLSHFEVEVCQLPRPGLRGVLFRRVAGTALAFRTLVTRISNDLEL

[9] = test system: Platelet-derived growth factor receptor alpha (Homo sapiens), P16234 [D842V]; test: Inhibition of human PDGFRalpha D842V mutant assessed as residual activity at 1 uM using Poly(Ala,Glu,Lys,Tyr)6:2:5:1 as substrate in presence of 33P-ATP by ProQinase assay relative to control
[10] = target: Protein kinase C theta type (Homo sapiens) (UniProt Q04759); test: Inhibition of human PKCtheta assessed as residual activity at 1 uM using 3xChocktide-PKC(19-31) as substrate in presence of 33P-ATP by ProQinase assay relative to control
[11] = target: Rho-associated protein kinase 2 (Homo sapiens) (UniProt O75116); test: Inhibition of human ROCK2 assessed as residual activity at 1 uM using RB-S6P as substrate in presence of 33P-ATP by ProQinase assay relative to control
[12] = target: Tyrosine-protein kinase ZAP-70 (Homo sapiens) (UniProt P43403); test: Inhibition of human ZAP70 assessed as residual activity at 1 uM using polyEY as substrate in presence of 33P-ATP by ProQinase assay relative to control
[13] = Anti-inflammatory activity against human derived high respond PBMC cells assessed as inhibition in stimulated INFgamma cytokine release incubated for 2 hrs in the presence of LPS/SEB/aCD28 by Luminex based sandwich immunoassay; assay type: functional, cell-based

Sequence of Proto-oncogene tyrosine-protein kinase receptor Ret (Homo sapiens) (P07949 whole entry): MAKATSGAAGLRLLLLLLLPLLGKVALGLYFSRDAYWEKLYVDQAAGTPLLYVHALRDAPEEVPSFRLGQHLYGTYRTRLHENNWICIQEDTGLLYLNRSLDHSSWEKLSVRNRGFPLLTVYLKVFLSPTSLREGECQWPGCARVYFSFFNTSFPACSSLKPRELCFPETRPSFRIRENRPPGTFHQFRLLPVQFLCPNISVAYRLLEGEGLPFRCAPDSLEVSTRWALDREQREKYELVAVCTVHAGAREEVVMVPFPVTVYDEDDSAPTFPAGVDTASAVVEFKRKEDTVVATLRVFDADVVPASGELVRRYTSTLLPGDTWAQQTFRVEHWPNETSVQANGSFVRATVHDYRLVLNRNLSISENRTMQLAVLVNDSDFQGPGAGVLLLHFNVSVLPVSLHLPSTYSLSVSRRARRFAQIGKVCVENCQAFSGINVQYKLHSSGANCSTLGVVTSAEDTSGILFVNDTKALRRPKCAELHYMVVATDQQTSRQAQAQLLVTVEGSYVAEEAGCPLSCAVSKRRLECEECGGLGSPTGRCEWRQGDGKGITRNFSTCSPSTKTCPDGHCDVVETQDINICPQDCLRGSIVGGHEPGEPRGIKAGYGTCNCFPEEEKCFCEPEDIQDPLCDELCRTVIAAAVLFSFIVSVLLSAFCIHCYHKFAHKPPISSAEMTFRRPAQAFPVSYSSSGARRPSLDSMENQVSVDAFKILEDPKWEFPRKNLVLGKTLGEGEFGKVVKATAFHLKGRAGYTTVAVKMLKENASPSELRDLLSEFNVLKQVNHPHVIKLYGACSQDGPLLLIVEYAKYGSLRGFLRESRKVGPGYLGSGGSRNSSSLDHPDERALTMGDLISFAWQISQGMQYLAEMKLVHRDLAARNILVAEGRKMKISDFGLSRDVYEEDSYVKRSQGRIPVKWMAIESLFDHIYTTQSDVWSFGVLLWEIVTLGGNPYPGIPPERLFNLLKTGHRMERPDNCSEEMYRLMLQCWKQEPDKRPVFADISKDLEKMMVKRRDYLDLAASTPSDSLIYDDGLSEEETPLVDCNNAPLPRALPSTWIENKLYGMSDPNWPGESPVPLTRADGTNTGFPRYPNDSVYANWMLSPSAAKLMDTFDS
Sequence of SRSF protein kinase 1 (Homo sapiens) (Q96SB4 whole entry): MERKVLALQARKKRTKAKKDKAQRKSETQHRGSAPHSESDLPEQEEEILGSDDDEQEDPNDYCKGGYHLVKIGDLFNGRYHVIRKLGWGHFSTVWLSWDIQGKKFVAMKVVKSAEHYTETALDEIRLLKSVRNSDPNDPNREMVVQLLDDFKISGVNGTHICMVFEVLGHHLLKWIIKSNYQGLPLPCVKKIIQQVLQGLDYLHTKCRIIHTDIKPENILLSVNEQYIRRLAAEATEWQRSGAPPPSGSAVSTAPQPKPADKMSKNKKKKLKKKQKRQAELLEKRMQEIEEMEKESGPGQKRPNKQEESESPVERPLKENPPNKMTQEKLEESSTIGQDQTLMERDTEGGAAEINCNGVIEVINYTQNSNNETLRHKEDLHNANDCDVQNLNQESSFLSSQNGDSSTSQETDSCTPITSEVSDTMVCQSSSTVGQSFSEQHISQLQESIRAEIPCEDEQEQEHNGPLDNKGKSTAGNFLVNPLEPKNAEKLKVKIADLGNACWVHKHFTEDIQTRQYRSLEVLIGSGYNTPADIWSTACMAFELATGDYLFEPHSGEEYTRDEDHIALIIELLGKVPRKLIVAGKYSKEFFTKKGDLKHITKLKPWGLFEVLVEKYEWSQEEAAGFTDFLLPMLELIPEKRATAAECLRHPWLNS
Sequence of Rho-associated protein kinase 2 (Homo sapiens) (O75116 whole entry, looked up): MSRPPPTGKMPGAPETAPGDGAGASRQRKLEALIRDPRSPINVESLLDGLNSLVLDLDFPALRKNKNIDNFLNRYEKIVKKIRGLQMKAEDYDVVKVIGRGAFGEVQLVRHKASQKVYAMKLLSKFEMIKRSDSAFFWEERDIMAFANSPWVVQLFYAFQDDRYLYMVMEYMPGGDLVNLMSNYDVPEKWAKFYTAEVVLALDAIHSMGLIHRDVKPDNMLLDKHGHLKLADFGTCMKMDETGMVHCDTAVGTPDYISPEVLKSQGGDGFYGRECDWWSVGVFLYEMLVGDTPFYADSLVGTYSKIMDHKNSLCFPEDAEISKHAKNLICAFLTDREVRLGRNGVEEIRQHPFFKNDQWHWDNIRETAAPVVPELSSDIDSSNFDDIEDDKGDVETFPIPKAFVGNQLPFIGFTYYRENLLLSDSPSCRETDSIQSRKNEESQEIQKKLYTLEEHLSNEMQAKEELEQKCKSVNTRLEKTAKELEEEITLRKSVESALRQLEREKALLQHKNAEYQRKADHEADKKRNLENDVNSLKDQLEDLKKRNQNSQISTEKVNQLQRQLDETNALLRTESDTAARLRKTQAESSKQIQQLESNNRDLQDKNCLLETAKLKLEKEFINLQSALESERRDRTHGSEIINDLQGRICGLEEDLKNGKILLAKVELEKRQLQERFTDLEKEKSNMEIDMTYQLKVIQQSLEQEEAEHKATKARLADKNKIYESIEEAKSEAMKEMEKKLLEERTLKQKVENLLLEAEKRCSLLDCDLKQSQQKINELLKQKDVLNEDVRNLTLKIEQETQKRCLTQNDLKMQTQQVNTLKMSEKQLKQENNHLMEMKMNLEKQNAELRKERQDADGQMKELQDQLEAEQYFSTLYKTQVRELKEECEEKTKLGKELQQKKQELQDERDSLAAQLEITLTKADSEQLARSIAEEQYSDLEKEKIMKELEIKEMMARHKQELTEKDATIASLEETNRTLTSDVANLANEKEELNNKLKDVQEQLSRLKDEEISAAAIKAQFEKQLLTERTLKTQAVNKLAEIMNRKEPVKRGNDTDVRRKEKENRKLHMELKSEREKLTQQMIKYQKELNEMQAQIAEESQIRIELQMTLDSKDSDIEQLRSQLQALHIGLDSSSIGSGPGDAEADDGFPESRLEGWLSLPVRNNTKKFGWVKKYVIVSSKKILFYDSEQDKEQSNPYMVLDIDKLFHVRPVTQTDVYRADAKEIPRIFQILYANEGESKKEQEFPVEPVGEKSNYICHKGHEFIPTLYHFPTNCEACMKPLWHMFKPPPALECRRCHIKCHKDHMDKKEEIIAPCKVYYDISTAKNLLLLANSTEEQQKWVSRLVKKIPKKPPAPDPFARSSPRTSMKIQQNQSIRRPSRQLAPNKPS
Sequence of Mitogen-activated protein kinase kinase kinase 13 (Homo sapiens) (O43283 whole entry): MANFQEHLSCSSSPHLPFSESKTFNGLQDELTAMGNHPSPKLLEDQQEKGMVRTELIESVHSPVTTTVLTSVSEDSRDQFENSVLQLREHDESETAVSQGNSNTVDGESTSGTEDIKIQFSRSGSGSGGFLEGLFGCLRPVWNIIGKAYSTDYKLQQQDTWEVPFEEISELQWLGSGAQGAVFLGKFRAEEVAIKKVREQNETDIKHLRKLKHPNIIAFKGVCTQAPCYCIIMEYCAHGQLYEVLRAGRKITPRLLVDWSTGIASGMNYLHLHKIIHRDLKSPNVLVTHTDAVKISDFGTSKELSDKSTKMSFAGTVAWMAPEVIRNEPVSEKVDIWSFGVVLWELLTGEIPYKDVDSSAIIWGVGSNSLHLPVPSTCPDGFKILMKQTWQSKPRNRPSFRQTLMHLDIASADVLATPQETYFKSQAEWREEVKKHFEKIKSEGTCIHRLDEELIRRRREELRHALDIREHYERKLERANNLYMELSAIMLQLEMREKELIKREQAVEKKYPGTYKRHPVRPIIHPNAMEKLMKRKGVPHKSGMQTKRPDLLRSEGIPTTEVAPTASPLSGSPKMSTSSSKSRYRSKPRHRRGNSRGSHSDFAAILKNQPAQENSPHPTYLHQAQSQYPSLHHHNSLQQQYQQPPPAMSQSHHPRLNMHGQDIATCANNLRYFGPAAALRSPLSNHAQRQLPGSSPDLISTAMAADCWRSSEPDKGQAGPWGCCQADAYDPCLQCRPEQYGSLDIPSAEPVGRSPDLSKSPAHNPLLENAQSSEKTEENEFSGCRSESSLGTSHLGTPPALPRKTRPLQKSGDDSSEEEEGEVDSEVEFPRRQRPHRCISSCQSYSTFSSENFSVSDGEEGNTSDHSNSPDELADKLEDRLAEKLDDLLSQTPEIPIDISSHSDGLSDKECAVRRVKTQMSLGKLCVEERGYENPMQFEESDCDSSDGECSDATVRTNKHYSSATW
Sequence of Tyrosine-protein kinase ZAP-70 (Homo sapiens) (P43403 whole entry): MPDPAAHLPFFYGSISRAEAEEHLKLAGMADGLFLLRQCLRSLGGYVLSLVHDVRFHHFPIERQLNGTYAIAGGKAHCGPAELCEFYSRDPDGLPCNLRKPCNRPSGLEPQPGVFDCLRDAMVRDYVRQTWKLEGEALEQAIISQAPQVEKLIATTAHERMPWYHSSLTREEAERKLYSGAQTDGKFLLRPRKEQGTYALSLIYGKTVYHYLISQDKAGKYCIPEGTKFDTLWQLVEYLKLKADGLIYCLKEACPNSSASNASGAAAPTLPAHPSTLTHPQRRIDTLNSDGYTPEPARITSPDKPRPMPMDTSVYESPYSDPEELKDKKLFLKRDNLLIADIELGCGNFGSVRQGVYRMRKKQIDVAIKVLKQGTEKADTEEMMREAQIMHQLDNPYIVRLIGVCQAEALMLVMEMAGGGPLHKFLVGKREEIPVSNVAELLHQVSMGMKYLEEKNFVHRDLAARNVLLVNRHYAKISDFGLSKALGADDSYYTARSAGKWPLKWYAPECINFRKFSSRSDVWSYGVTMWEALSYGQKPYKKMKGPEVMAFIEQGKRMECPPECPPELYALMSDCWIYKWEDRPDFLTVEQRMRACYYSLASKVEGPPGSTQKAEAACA

O=C1c2ccc(Nc3ccc(F)cc3F)cc2CCc2ccc(OC[C@H](O)CO)cc21 [Skepinone-L]
Activity [1]: 98%
Activity [2]: 100%
Activity [3]: 97%
Activity [4]: 100%
Activity [5]: 92%
Activity [6]: 128%
Activity [7]: 98%
Activity [8]: 96%
Activity [9]: 97%
Activity [10]: 99%
Activity [11]: 90%
Activity [12]: 98%
IC50 [13]: 60 nM
